# In publication PMC3575220, “Inhibition of dengue NS2B-NS3 protease and viral replication in Vero cells by recombinant retrocyclin-1” (BMC Infectious Diseases, 2012):
# Where no end group is shown, it is not given here.
# Legend:
# dengue NS2B-NS3pro = biological target: T1, dengue NS2B-NS3pro (Dengue virus type 2, UniProt P29990); assay: Fluorogenic NS2B-NS3pro protease inhibition assay; assay type: biochemical, DENV-2; details: pH 8.5, 200 mM Tris–HCl, 20 μM Boc-Gly-Arg-Arg-AMC, 2 μM enzyme, 30 min pre-incubation, 30 min reaction, fluorescence ex 350/em 440 nm, triplicates, ± SD
# T1 construct: 6XHis (pQE30 vector) (N); made in house; host or cells: Escherichia coli XL1-Blue
# Protocol: The bioassay used in this study was published by Rothan and co-workers. In brief, endpoint reaction mixtures with total volume of 200 μl were prepared consisted of 20 μM fluorogenic peptide substrate (Boc-Gly-Arg-Arg-AMC), 2 μM of recombinant NS2B-NS3pro, with or without RC-1 of varying concentrations, buffered at pH 8.5 with 200 mM Tris–HCl. The RC-1 was initially prepared in Tris–HCl buffer and assayed at five different concentrations, ranging from 9.3 - 150 μM. Three types of reactions which are buffer, buffer with enzyme and buffer with enzyme and different concentrations of RC-1were incubated at 28°C, 37°C and 40°C for 30 minutes. Subsequently, the substrate was added to each reaction mixture and incubated at same temperatures for another 30 minutes. Measurements were performed in triplicates using Tecan Infinite M200 Pro fluorescence spectrophotometer. Substrate cleavage was normalized against buffer only (control) and optimized at the emission at 440 nm upon excitation at 350 nm. The readings were then used for calculating Km values of peptide substrate and IC50 values of peptide inhibitors using non-linear regression models in GraphPad Prism 5.0 software as previously described.
# Figure 4 The inhibition potential of RC-1 against the activity of DENV-2 NS2B-NS3pro. End point protease inhibition assay was carried out to evaluate the inhibitory potential of RC-1 against the protease’s ability to cleave a fluorogenic peptide substrate (Boc-Gly-Arg-Arg-AMC). The reaction mixtures consisted of 20 μM substrate, 2 μM of enzyme, with or without RC-1 of varying concentrations incubated at 28°C, 37°C or 40°C for 30 minutes. The results were normalized with the substrate alone and substrate with protease incubated at same temperatures. […] 2'; read as 1.2
# DENV-2 in Vero cells = assay: DENV-2 RNA reduction in infected Vero cells by real-time PCR; assay type: cell-based; details: for reduction in viral replication / reduction in total viral RNA copies: 150 μM RC-1, MOI of 2; for reduction in total viral RNA copies: ± SD
# Protocol: Three independent experiments were carried out for pre, simultaneous and post-infection treatments with RC-1 at 24, 48 and 72 hrs of each infection in triplicates. Vero cells were grown in a 24-well tissue culture plate (1 × 10^5 cells/well), incubated 24 hrs under optimal conditions and infected with DENV-2 (MOI of 2). For pre-treatment infection, 150 μM of RC-1 was added to the cells before virus inoculation and incubated for 24 hrs. Afterwards, DENV-2 supernatant was added, followed by incubation for 1 hr with gentle shaking every 10 min for optimal virus to cells contact. The virus supernatant was removed, and the cells were washed twice with fresh serum-free DMEM media to remove residual virus. New complete DMEM media were added and the cultures were incubated for 24, 48 and 72 hrs at 37°C, supplemented with 5% CO2. Same applications were used for simultaneous treatment infection except the peptide was mixed with the virus supernatant and incubated at 37°C for 1 h, and then inoculated onto Vero cells. The post-treatment infection was carried out after inoculation of Vero cells with DENV-2 and the complete DMEM medium was added containing the RC-1. Then, the cultures were incubated for 24, 48 and 72 hrs at 37°C and 5% CO2 with three wells of infected cells in each experiment were kept without RC-1 as controls. Cellular supernatants were collected and stored at −80°C for viral quantification using real time PCR.
# For quantification of copy number of DENV-2 RNA, the standard curve was generated by 10-fold serial dilution of known copies of DENV-2 RNA. Viral RNA was extracted from culture supernatant using QIAmp viral RNA mini kit (Qiagen, Germany) according to the manufacturer’s instructions. A fragment located at the 5'UTR region of the virus genome was used to generate the primers. One-step RT-PCR using SyBr Green Master Kit (Qiagen, Germany) was used to conduct absolute quantification using ABI7300 machine from Applied Biosystems (Foster City, CA). The PCR profile was 1 cycle of 50°C for 2 min, 1 cycle of 95°C for 10 min, 40 cycles of 10 sec denaturation at 95°C, 20 sec annealing at 57.7°C with a single fluorescence emission measurement and 30 sec extension at 72°C, followed by 5 min at 72°C for final extension. Dissociation curve analysis was added to the end of each run. Results were analyzed using the company's Sequence Detection Software Version 1.3.
# (§1) Figure 5 The percentage of viral reduction in Vero cells after different treatments with RC-1. (A) RC-1 was diluted to various concentrations (37.5, 75, 100, 125, 150 and 175 μM) with DMEM media supplemented with 2 % FBS and added to the cell culture. The viability of cells was analyzed at 24, 48 and 72 hrs using Non-Radioactive Cell Proliferation assay. (B) The cells were grown under the optimal conditions and infected with DENV-2 at the MOI of 2. The MNTD of RC-1 (150 μM) was used to treat infected Vero cells and the results were normalized with infected cells without RC-1 as controls. Pre, simultaneous and post-infection treatments with RC-1 were applied at 24, 48 and 72 hrs of each infection. The percentage of inhibition was the highest for simultaneous treatment compared to pre and post-treatment. (Two way ANOVA was used with Bonferroni post-test, P < 0.0001).
# Vero cells = assay: Maximum non-toxic dose test (cell proliferation assay); assay type: cell-based
# Protocol: Vero cells were seeded at 1 × 10^4 cells per well in triplicate in 96 well plates and propagated at optimal conditions (37°C, 5% CO2 in humidified incubator). Recombinant RC-1 was diluted to serial concentrations (37.5, 75, 100, 125, 150 and 175 μM) with DMEM media supplemented with 2% FBS. Each dilution was tested in triplicate. Two control wells were included in each experiment: culture medium without RC-1 and culture medium with different concentrations of the RC-1 in the absence of cells to subtract the background value of RC-1 in the culture medium. The cell cultures were analyzed at 24, 48 and 72 hours using Non-Radioactive Cell Proliferation assay (Promega, USA) according to the manufacturer’s instructions.
# as §1
# E. coli = assay: Disc diffusion susceptibility test, E. coli; assay type: cell-based; details: 0.1 mg/ml RC-1, Mueller-Hinton agar, clear circular zone
# Protocol: (§2) The disc diffusion susceptibility test was used to evaluate antimicrobial activity of the recombinant RC-1. The samples of recombinant RC-1 before and after refolding applications (100 μg/ml) were dropped onto a filter paper discs (0.1 mg/ml) and left to dry at room temperature. Then, the filters paper discs placed on an E. coli-inoculated Mueller-Hinton agar and a Saccharomyces cerevisiae inoculated yeast extract peptone dextrose (YPD) agar plates. Both E. coli and yeast inoculated plates were inoculated for 16 hrs at […] and 30°C, respectively.
# (§3) Figure 2 Antimicrobial activity of recombinant RC-1 after refolding. Each sample of RC-1 before and after refolding (0.1 mg/ml) was dropped on filter papers discs and left to dry at room temperature. The dry filter paper discs were placed on E. coli and yeast-inoculated antibiotic-free Mueller-Hinton-gar and YPD-agar plates respectively and incubated overnight at 37°C (E. coli) or 30°C (yeast).
# [1] = tested on: yeast (Saccharomyces cerevisiae); assay: Disc diffusion susceptibility test, yeast; assay type: cell-based; details: 0.1 mg/ml RC-1, YPD agar, 30°C, clear circular zone
# Protocol: as §2, §3
# [2] = cited from earlier work
# From the text: We conducted this study to evaluate the effect of RC-1, a cationic cyclic peptide on the activity of dengue protease as a target to inhibit replication of dengue virus. The RC-1 was produced inexpensively as a soluble recombinant peptide in E. coli and the tri-disulphide bonds were correctly reformed in alkaline and diluted environment. […] Furthermore, this peptide is able to provide long-lasting prote ...
# [3] = up to 500 μg/ml (250 μM); cited from earlier work
# From the text: (§4) It has been known that the compound toxicity could hinder the development of drugs against dengue virus.
# different cell lines = details: up to 500 μg/ml (250 μM); cited from earlier work
# From the text: as §4
sequence,measurement,setting,value
"GICRCICGRGICRCICGR (also: bicyclic or more (positions not given here)) [RC-1, retrocyclin-1, disulphide cyclic peptide, theta-defensin analogue, circular, cationic, tri-disulphide bonded (Cys3-Cys16, Cys5-Cys14, Cys7-Cys12)]",IC50,dengue NS2B-NS3pro; 28°C,46.1 ± 1.7 µM
same,IC50,dengue NS2B-NS3pro; 37°C,21.4 ± 1.6 µM
same,IC50,dengue NS2B-NS3pro; 40°C,14.1 ± 1.2 µM
same,reduction in viral replication,"DENV-2 in Vero cells; post-treatment, 48 hrs, triplicates",30%
same,reduction in viral replication,"DENV-2 in Vero cells; post-treatment, 72 hrs, triplicates",45%
same,viral replication (in words),"DENV-2 in Vero cells; pre, simultaneous and post infection treatment modes, maximum non-toxic dose",significantly declined
same,reduction in viral replication,"DENV-2 in Vero cells; pre-treatment (24 hrs before virus), 48 hrs, triplicates",40%
same,reduction in viral replication,"DENV-2 in Vero cells; pre-treatment (24 hrs before virus), 72 hrs, triplicates",38%
same,reduction in total viral RNA copies,"DENV-2 in Vero cells; simultaneous treatment, 24 hrs, triplicates",45.5% ± 4.2
same,reduction in viral replication,"DENV-2 in Vero cells; simultaneous treatment, 72 hrs",85%
same,reduction in total viral RNA copies,"DENV-2 in Vero cells; simultaneous treatment, 72 hrs, triplicates",85% ± 7.1
same,cellular morphological abnormalities,Vero cells; Vero cells,no noticeable cellular morphological abnormalities
same,cellular toxicity (in words),"Vero cells; Vero cells, 150 μM",low cellular toxicity
same,maximum non-toxic dose (MNTD),"Vero cells; all three incubation periods, 24, 48 and 72 hrs, 37.5-175 μM tested, DMEM 2% FBS, triplicate",150 µM
same,antimicrobial activity,E. coli,exhibited antimicrobial activity
same,antimicrobial activity,[1],exhibited antimicrobial activity
same,fold potency of cyclic RC-1 over the open chain analogue,[2],3 fold
same,haemolytic activity,[3],neither haemolytic activity nor cytotoxicity
same,cytotoxicity in different cell lines,different cell lines,neither haemolytic activity nor cytotoxicity
